Read-outs that look alike come from different tables or passages of the source.
Legend:
[1] = test system: HBV DNA replication in HepAD38 cells; assay: HBV DNA replication inhibition assay in HepAD38 cells (7 days, PCR of supernatant DNA); type: cell-based, hepatitis B virus; conditions: HepAD38 cells; for HBV DNA inhibition (%) at 10 µM: first round of selected compounds
Procedure: HepAD38 cells were seeded at 50,000 cells/well in collagen-coated 96-well plates. […] The experiment lasted 7 days. On day 7, total DNA was purified from the supernatant using a commercially available kit (DNeasy 96 Blood & Tissue kit, Qiagen). The HBV DNA was amplified in a polymerase chain reaction assay using LightCycler 480 II (Roche), as previously described.[63] All samples were tested in duplicate.

[2] = test system: T lymphoblast CEM-CCRF (CEM) cells; assay: MTT cytotoxicity, CEM cells; type: cell-based, human
Procedure: (§1) Human peripheral blood mononuclear (PBM), T lymphoblast CEM-CCRF (herein referred to as CEM cells), African green monkey kidney (Vero), or human liver carcinoma (HepG2) cells were tested via MTT assay using the CellTiter 96 Non-Radioactive Cell Proliferation (Promega) kit as previously described.[63]

[3] = test system: human peripheral blood mononuclear (PBM) cells; assay: MTT cytotoxicity, PBM cells; type: cell-based
Procedure: as §1

[4] = test system: African green monkey kidney (Vero) cells; assay: MTT cytotoxicity, Vero cells; type: cell-based; conditions: Vero cells
Procedure: as §1

[5] = test system: human liver carcinoma (HepG2) cells; assay: MTT cytotoxicity, HepG2 cells; type: cell-based; conditions: HepG2 cells
Procedure: as §1

[6] = trial 1, read-out: EC50, trial 1
[7] = trial 2, read-out: EC50, trial 2

SMILES	HBV DNA inhibition (%) at 10 µM [1]	% HBV DNA Inh. at 10 μM, trial 1 ([1]; trial 1)	CC50 [2]	CC50 [3]	CC50 [4]	CC50 [5]	% HBV DNA Inh. at 10 μM, trial 2 ([1]; trial 2)	EC50 [1, 6]	EC50 [1, 7]	% cytotoxicity at 100 µM (MTT), CEM cells [2]	percent cytotoxicity (cell growth inhibition) at 100 µM [3]	% cytotoxicity (MTT) at 100 µM ([4]; 100 µM)
Nc1ccn([C@@H]2CS[C@H](CO)O2)c(=O)n1 [3TC, reference compound]	97%	82%										
C=CC1CN2CCC1CC2C(O)c1ccnc2ccc(OC)cc12 (centres unmarked) [GT-1]	< 1%											
CC(CC(C#N)(c1ccccc1)c1ccccc1)N1CCCCC1 (centres unmarked) [GT-2]	< 1%		16.1 µM	85.3 µM	> 100 µM	26.4 µM						
Clc1ccccc1C=Cc1ccnc2ccccc12 [GT-3]	40.4%		15.4 µM	34 µM	27 µM	51.2 µM						
CC(O)(c1ccccc1)C(c1ccccc1)C1CCCCN1 (centres unmarked) [GT-4]	< 1%		> 100 µM	> 100 µM	> 100 µM	> 100 µM						
Cc1c(CCN)ccc2c1[nH]c1ccccc12 [GT-6]	27.2%		18.7 µM	47.7 µM	42.6 µM	14.9 µM						
Cc1nc(-c2ccccc2)c(Cc2ccccc2O)c(=O)[nH]1 [GT-7]	< 1%		> 100 µM	> 100 µM	> 100 µM	> 100 µM						
O=C(CC1C=Cc2ccccc2N1C(=O)c1ccccc1)c1ccccc1 (centres unmarked) [GT-8]	< 1%		> 100 µM	> 100 µM	> 100 µM	> 100 µM						
Cc1ccc(CC#N)c(-c2c(CC#N)ccc(C)c2C)c1C [GT-9]	34.6%		> 100 µM	> 100 µM	> 100 µM	55.3 µM						
CCC(CO)Nc1nc2ccc(Cl)cc2c2ccccc12 (centres unmarked) [GT-10]	< 1%		15.2 µM	18.2 µM	14.4 µM	12.9 µM						
N#CC(c1ccccc1)C(C(Cc1ccccc1)=NO)c1ccccc1 (centres unmarked) [GT-11]	< 1%		13.3 µM	63.9 µM	18.9 µM	31.6 µM						
NCc1cccc(Oc2ccccc2)c1 [GT-12]	< 1%		17 µM	> 100 µM	> 100 µM	> 100 µM						
O=C(NCCc1ccccc1)c1cccnc1 [GT-13]	< 1%		> 100 µM	> 100 µM	> 100 µM	> 100 µM						
Fc1ccccc1CNCc1ccccn1 [GT-14]	< 1%		> 100 µM	> 100 µM	> 100 µM	> 100 µM						
O=C(CCc1ccccc1)Nc1cccnc1 [GT-15]	< 1%		> 100 µM	> 100 µM	> 100 µM	> 100 µM						
O=C(OCc1ccccc1)c1cccnc1 [GT-16]	1.7%		> 100 µM	> 100 µM	> 100 µM	> 100 µM						
NCc1ccc(N2CCC(CO)CC2)cc1 [GT-17]	< 1%		> 100 µM	> 100 µM	> 100 µM	> 100 µM						
CC(NC(=O)c1cccnc1)c1ccccc1 (centres unmarked) [GT-18]	< 1%		> 100 µM	> 100 µM	> 100 µM	> 100 µM						
NCc1ccc(-c2ccccc2F)o1 [GT-19]	< 1%		> 100 µM	> 100 µM	> 100 µM	> 100 µM						
Cc1ccc(C(N)c2ccncc2)cc1 (centres unmarked) [GT-20]	< 1%		> 100 µM	> 100 µM	> 100 µM	> 100 µM						

SMILES	HBV DNA inhibition (%) at 10 µM [1]	% HBV DNA Inh. at 10 μM, trial 1 ([1]; trial 1)	CC50 [2]	CC50 [3]	CC50 [4]	CC50 [5]	% HBV DNA Inh. at 10 μM, trial 2 ([1]; trial 2)	EC50 [1, 6]	EC50 [1, 7]	% cytotoxicity at 100 µM (MTT), CEM cells [2]	percent cytotoxicity (cell growth inhibition) at 100 µM [3]	% cytotoxicity (MTT) at 100 µM ([4]; 100 µM)
NCc1cccc(Oc2ccccc2)c1 [GT-21]	< 1%		18.2 µM	> 100 µM	49.6 µM	> 100 µM						
NCc1ccc(F)c(COC2CCCC2)c1 [GT-22]	< 1%		36.3 µM	> 100 µM	88.6 µM	> 100 µM						
O=C(NCc1cccnc1)C1CCNCC1 [GT-23]	< 1%		> 100 µM	> 100 µM	> 100 µM	> 100 µM						
NCc1cccc(-c2ccccn2)c1 [GT-24]	< 1%		11.3 µM	> 100 µM	> 100 µM	> 100 µM						
CC(NC(=O)c1ccccc1)c1ccccn1 (centres unmarked) [GT-25]	< 1%		> 100 µM	> 100 µM	> 100 µM	> 100 µM						
O=C(NCCn1ccnc1)c1ccccn1 [GT-26]	< 1%		> 100 µM	> 100 µM	> 100 µM	> 100 µM						
Cc1cc(-c2ccccc2)nc(C#N)c1C#N [GT-27]	< 1%		4 µM	14.7 µM	27.3 µM	41.7 µM						
CNc1cc(C#N)nc(-c2ccccc2)n1 [GT-28]	< 1%		63.8 µM	24 µM	> 100 µM	> 100 µM						
CC(N)c1ccc(-c2ccc(F)cc2)cc1 (centres unmarked) [GT-29]	< 1%		35.7 µM	25 µM	21 µM	12.3 µM						
CCN1CCN(C(=O)c2ccc(-c3nc4ccccc4nc3-c3ccccc3)cc2)CC1 [GT-30]		< 1%	32 µM	60 µM	81 µM	34 µM	< 1%	> 10 µM	> 10 µM			
COc1ccc(-c2cc(C(=O)Oc3cccc(-c4cnc5ccccc5n4)c3)c3ccccc3n2)cc1 [GT-31]		< 1%	> 100 µM	86 µM	97 µM	42 µM	< 1%	> 10 µM	> 10 µM	36%		
c1ccc(Cn2cc(-c3cccnc3)c(-c3nc(-c4ccccc4)c(-c4ccccc4)[nH]3)n2)cc1 [GT-34]		< 1%	11 µM	59 µM	14 µM	16 µM	< 1%	> 10 µM	> 10 µM			
COc1cc(OC)c2cc(-c3nc4ccccc4[nH]3)c(-c3ccc(C)cc3)nc2c1 [GT-35]		36%	> 100 µM	> 100 µM	42 µM	63 µM	36%	> 10 µM	> 10 µM	49%	14%	
O=C(NCCN1CCOCC1)c1ccc2nc(-c3ccccc3)c(-c3ccccc3)nc2c1 [GT-36]		11%	18 µM	10 µM	31 µM	29 µM	11%	> 10 µM	> 10 µM			
Cc1nc2ccccc2nc1-c1sc2ncccc2c1O [GT-37]		40%	> 100 µM	> 100 µM	19 µM	24 µM	40%	> 10 µM	> 10 µM	< 1%	48%	
COc1ccc(F)c(Cn2cnc(-c3ccccc3)c2-c2c[nH]cn2)c1F [GT-38]		45%	62 µM	> 100 µM	48 µM	24 µM	45%	> 10 µM	> 10 µM		24%	
OC(Cn1cnc(-c2ccccc2)c1-c1cc2ccccc2[nH]1)c1cccnc1 (centres unmarked) [GT-41]		< 1%	12 µM	27 µM	18 µM	10 µM	< 1%	> 10 µM	> 10 µM			
O=C(Cc1ccc(O)cc1)NCc1nc(-c2cccc(F)c2)c(-c2ccccn2)[nH]1 [GT-42]		< 1%	1.4 µM	3.5 µM	13 µM	5.4 µM	< 1%	> 10 µM	> 10 µM			
Cc1ccc(-c2nc(CNC(=O)C3CCOC3)[nH]c2-c2ccccn2)cc1 (centres unmarked) [GT-43]		4.7%	30 µM	42 µM	19 µM	29 µM	4.7%	> 10 µM	> 10 µM			
CC(=O)N1CCC(NCc2nc(-c3ccc(C)cc3)c(-c3ccccn3)[nH]2)CC1 [GT-44]		37%	63 µM	64 µM	> 100 µM	70 µM	37%	> 10 µM	> 10 µM			54%

From publication PMC11019538, “Biophysics-Guided Lead Discovery of HBV Capsid Assembly Modifiers” (ACS Infectious Diseases, 2024)
